Assay type in all cases: cell-based
Holding throughout (details): normal human peripheral blood lymphocytes

For one experiment, the system named is NFκBp65. Briefly: NFκBp65 expression in human peripheral blood lymphocytes (TransAM NFκB family transcription factor assay kit). The procedure: (§1) Lymphocytes were separated from normal human peripheral blood, which was collected by using heparin sodium, by specific gravity centrifugation using Lympholight H (Cedarlane, Canada), and inducing ability for production of various cytokines and chemokines and inducing ability for expression of NFκBp65, a cellular transcription factor, were analyzed using the lymphocytes. Human cytokines (IL-6 and TNFα; Techne Co., USA), chemokines (IL-8 and MCP-1; American Research Product, Inc., USA) and on NFκB (TransAM NFκB family transcription factor assay kit; Active Motif, Co., USA) were measured by enzyme antibody method.

Another experiment concerns MCP-1. Briefly: MCP-1 production by human peripheral blood lymphocytes co-cultured with peptide (enzyme antibody method). The procedure:
as §1

A further experiment concerns IL-8. Briefly: IL-8 production by human peripheral blood lymphocytes co-cultured with peptide (enzyme antibody method). The procedure:
as §1

A further experiment relates to IL-6. Briefly: IL-6 production by human peripheral blood lymphocytes co-cultured with peptide (enzyme antibody method). Here is the method:
as §1

As to FKDCHLA [HuPep1], in the experiment with NFκBp65, the “enhancement of expression of NFκBp65, a cellular transcription factor” value is “confirmed”. In addition, the “inducing ability for production of MCP-1” value in the experiment on MCP-1 is recorded as “confirmed”. Besides, the “inducing ability for production of IL-8” value in the experiment with IL-8 was “confirmed”. For the same substance, in the experiment on IL-6, the “production of IL-6, one inflammatory cytokine” value was “could be confirmed”.
As for GQKDLLFKDSAI [HuPep4], the “enhancement of expression of NFκBp65, a cellular transcription factor” value in the experiment on NFκBp65 is recorded as “confirmed”. Moreover, the “inducing ability for production of MCP-1” value in the experiment with MCP-1 is listed as “confirmed”. Besides, the “inducing ability for production of IL-8” value with IL-8 is recorded as “confirmed”. In addition, in the experiment with IL-6, the “production of IL-6, one inflammatory cytokine” value is on record as “could be confirmed”.

The values above are taken from patent US20070197426A1, “Lactoferrin polypeptide, process for producing the same and inflammation inducing substance” (priority 2004, published 2007).
